Data set [1] has as its target PDE4 (cAMP-specific), cytosol of human polymorphonuclear leucocytes (PMNL). Kind of data set: Inhibition of the PDE isoenzymes: PDE4. The settings on record: cAMP as substrate, motapizone (1 μM) present. In kind it is biochemical. How it is done:
(§1) The PDE activity was determined according to Thompson et al. (1) with a few modifications (2). The test samples contained 40 mM tris HCl (pH 7.4), 5 mM MgCl2, 0.5 μM cAMP or cGMP, [^3H] cAMP or [^3H]cGMP (about 50,000 cpm/sample), the PDE isoenzyme-specific additives described in greater detail below, the given concentrations of inhibitor and an aliquot of the enzyme solution in a total sample volume of […]. […] After preincubation at 37° C. for 5 minutes, the reaction was started by addition of the substrate (cAMP or cGMP). The samples were incubated at 37° C. for a further 15 min. The reaction was stopped by addition of 50 μl of 0.2N HCl. After cooling on ice for 10 minutes and addition of 25 μg of 5′-nucleotidase (snake venom from Crotalus atrox), incubation was carried out again for 10 min. at 37° C. and the samples were then applied to QAE Sephadex A-25 columns. The columns were eluted with 2 ml of 30 mM ammonium formate (pH 6.0). The radioactivity of the eluate was measured and corrected by the corresponding blank values. The proportion of hydrolyzed nucleotide in no case exceeded 20% of the original substrate concentration.
PDE4 (cAMP-specific) was investigated in the cytosol of human polymorphonuclear leucocytes (PMNL) [isolated from leucocyte concentrates, see Schudt et al. (5)] using cAMP as a substrate. The PDE3 inhibitor motapizone (1 μM) was used in order to suppress the PDE3 activity emanating from contaminating blood platelets.
(§2) The IC50 values were determined from the concentration inhibition curves by nonlinear regression using the program GraphPad InPlot™ (GraphPad Software Inc., Philadelphia, USA).

In data set [2] the target is T1, PDE3 (cGMP-inhibited), homogenates of human blood platelets (Homo sapiens, UniProt Q14432).
T1 construct: were investigated in homogenates of human blood platelets; from tissue; host or cells: human blood platelets (homogenate)
The data set can be described thus: Inhibition of the PDE isoenzymes: PDE3. Type of data set: biochemical. The settings on record: cAMP as substrate, read-out: PDE3 inhibitory concentration as -log IC50 (converted). How it is done: as §1
(§3) PDE3 (cGMP-inhibited) and PDE5 (cGMP-specific) were investigated in homogenates of human blood platelets [Schudt et al. (4)] using cAMP or cGMP as a substrate.
as §2

Another data set relates to human PMNL. Kind of data set: Inhibition of the formation of reactive oxygen species (FMLP-stimulated chemiluminescence) in human PMNL. Type of data set: cell-based. The settings on record: 0.05 h, FMLP 100 nM, luminol-potentiated chemiluminescence, AUC over 3 min, read-out: Inhibition of the FMLP-stimulated chemiluminiscence in human PMNL in vitro, inhibitory concentration as -log IC50 (converted).
Description: In the investigation of PDE4 inhibition at the cellular level, the activation of inflammatory cells has particular importance. An example which may be mentioned is the FMLP (N-formylmethionylleucylphenylalanine)-induced superoxide production of neutrophilic granulocytes, which can be measured as luminol-potentiated chemiluminescence [McPhail L C, Strum S L, Leone P A and Sozzani S, The neutrophil respiratory burst mechanism. In “Immunology Serie” 1992, 57, 47-76; ed. Coffey R G (Marcel Decker, Inc., New York-Basel-Hong Kong)].
The formation of reactive oxygen species determined by means of luminol-potentiated chemiluminescence (5) and the isolation of the PMNL from human blood (6) was carried out essentially as described in (5) and (6): equal-size portions (0.5 ml) of the cell suspension (10^7 cells/ml) were preincubated at 37° C. for 5 min. In the absence or presence of the compounds to be investigated in a buffer solution containing 140 mM NaCl, 5 mM KCl, 10 mM HEPES, 1 mM CaCl2/MgCl2, 1 mg/ml of glucose, 0.05% (w/v) BSA (bovine serum albumin), 10 μM luminol and 4 μM microperoxidase. […]
as §2

In data set [3] the target is T2, PDE2 (cGMP-stimulated) from rats' hearts (Rattus norvegicus, UniProt Q01062).
T2 construct: PDE2 (cGMP-stimulated) from rats' hearts was purified chromatographically; from tissue; host or cells: rat heart
T2 sequence (Q01062 1-928): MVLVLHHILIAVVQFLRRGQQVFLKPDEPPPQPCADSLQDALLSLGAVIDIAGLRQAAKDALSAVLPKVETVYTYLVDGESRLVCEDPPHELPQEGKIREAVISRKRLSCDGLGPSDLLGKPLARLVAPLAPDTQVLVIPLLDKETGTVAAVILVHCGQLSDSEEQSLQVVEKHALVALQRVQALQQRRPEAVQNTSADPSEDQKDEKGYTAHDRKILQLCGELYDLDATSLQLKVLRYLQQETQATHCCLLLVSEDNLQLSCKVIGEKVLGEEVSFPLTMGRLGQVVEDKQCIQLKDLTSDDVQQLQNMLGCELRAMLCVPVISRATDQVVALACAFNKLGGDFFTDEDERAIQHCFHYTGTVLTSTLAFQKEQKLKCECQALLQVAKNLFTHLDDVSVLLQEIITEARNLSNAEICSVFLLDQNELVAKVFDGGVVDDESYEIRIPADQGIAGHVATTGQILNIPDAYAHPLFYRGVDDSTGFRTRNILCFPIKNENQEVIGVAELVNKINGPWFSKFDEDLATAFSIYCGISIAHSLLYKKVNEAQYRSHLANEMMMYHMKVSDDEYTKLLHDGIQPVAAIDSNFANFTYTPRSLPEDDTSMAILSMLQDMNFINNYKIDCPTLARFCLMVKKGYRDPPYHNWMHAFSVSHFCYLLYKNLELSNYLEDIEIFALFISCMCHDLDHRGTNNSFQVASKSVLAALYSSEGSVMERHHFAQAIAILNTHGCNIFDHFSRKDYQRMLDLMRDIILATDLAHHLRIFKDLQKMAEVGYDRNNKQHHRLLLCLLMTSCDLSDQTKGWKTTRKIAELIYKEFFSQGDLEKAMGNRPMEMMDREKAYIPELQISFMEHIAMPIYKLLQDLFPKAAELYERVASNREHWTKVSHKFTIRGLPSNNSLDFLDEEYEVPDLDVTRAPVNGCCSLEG
The data set can be described thus: Inhibition of the PDE isoenzymes: PDE2. Type of data set: biochemical. The settings on record: in presence of cGMP (5 μM), cAMP as substrate, read-out: PDE2 inhibitory concentration as -log IC50 (converted). How it is done: as §1
PDE2 (cGMP-stimulated) from rats' hearts was purified chromatographically [Schudt et al. (4)] and investigated in the presence of cGMP (5 μM) using cAMP as a substrate.
as §2

Data set [4] concerns the target PDE1 (Ca2+/calmodulin-dependent) from bovine brain. The data set can be described thus: Inhibition of the PDE isoenzymes: PDE1. Type of data set: biochemical. Particulars: Ca2+ (1 mM) and calmodulin (100 nM), cGMP as substrate. How it is done: as §1
PDE1 (Ca^2+/calmodulin-dependent) from bovine brain: the inhibition of this isoenzyme was investigated in the presence of Ca^2+ (1 mM) and calmodulin (100 nM) using cGMP as a substrate (3).
as §2

Data set [5] concerns the target T3, PDE5 (cGMP-specific), homogenates of human blood platelets (Homo sapiens, UniProt O76074).
T3 construct: were investigated in homogenates of human blood platelets; from tissue; host or cells: human blood platelets (homogenate)
Kind of data set: Inhibition of the PDE isoenzymes: PDE5. Type of data set: biochemical. The settings on record: cGMP as substrate, read-out: PDE5 inhibitory concentration as -log IC50 (converted). How it is done: as §1, §3, §2

T1 sequence (Q14432 whole entry): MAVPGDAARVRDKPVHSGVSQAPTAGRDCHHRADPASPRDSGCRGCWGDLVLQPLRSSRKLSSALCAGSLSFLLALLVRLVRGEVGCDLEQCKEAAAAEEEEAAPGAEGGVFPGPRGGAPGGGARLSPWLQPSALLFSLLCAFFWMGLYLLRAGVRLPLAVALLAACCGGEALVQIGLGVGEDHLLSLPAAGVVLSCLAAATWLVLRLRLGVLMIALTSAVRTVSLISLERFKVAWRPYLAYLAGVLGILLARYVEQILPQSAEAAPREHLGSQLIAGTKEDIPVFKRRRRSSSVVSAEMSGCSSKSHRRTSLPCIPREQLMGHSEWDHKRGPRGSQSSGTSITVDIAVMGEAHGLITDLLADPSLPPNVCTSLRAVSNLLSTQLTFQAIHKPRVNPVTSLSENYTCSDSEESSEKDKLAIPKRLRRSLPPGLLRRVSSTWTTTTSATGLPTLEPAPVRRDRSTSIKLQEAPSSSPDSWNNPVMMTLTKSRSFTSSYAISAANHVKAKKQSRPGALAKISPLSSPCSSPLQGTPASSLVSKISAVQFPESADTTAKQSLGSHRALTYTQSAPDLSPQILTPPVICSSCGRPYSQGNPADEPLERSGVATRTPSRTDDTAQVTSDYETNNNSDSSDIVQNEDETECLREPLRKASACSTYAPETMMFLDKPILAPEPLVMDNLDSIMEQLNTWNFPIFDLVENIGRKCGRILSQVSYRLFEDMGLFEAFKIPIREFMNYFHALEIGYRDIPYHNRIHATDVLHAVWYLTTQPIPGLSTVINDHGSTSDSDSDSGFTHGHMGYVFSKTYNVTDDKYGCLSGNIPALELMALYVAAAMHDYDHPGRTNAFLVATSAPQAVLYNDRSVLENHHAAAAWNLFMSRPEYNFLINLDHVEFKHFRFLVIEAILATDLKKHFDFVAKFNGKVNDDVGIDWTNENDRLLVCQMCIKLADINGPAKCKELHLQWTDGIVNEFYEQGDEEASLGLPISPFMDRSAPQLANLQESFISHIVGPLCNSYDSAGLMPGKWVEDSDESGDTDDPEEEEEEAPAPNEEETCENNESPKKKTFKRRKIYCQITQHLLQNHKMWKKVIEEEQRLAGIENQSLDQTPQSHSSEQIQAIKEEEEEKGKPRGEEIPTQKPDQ

By melting point is commonly meant the temperature of the solid-liquid transition. For `CCOc1cc2c(cc1OCC)[C@@H]1CN(C)CC[C@@H]1N=C2c1ccc(NS(=O)(=O)c2ccc(C)cc2)cc1` (relative stereo) [Compound 1, (−)-cis-8,9-Diethoxy-2-methyl-6-[4-(p-toluenesulfonamido)-phenyl]-1,2,3,4,4a,10b-hexahydro-benzo[c][1,6]naphthyridine], the melting point lay in the range of 267 to 268 °C. Also, in data set [1], the “PDE4 inhibitory concentration as -log IC50” value was 8.60. Moreover, in data set [2], the IC50 was 79.4 nM. For the same compound, in the data set with human PMNL, the IC50 is 40.7 nM. Further, the IC50 in data set [3] was 1100 nM. Moreover, the “PDE1 inhibitory concentration as -log IC50” value in data set [4] was less than 5. For the same compound, the IC50 in data set [5] was 91.2 nM.
The compound `CCOc1cc2c(cc1OC)C(c1ccc(NS(=O)(=O)c3ccc(C)cc3)cc1)=N[C@H]1CCN(C)C[C@@H]21` (relative stereo) [Compound 2, (−)-cis-9-Ethoxy-8-methoxy-2-methyl-6-[4-(p-toluenesulfonamido)-phenyl]-1,2,3,4,4a,10b-hexahydro-benzo[c][1,6]naphthyridine] displayed a melting point of 207 to 219 °C. The “PDE4 inhibitory concentration as -log IC50” value in data set [1] is recorded as 9.00. Besides, the IC50 in data set [2] was 52.5 nM. For the same compound, the IC50 in data set [3] is 407 nM. Besides, the “PDE1 inhibitory concentration as -log IC50” value in data set [4] is reported as 5.14. Also, in data set [5], the IC50 was 182 nM.
For `COc1cc2c(cc1OC)[C@@H]1CN(C)CC[C@@H]1N=C2c1ccc(NS(=O)(=O)c2ccc(C)cc2)cc1` (relative stereo) [Tolafentrine, (−)-cis-8,9-Dimethoxy-2-methyl-6-[4-(p-toluenesulfonamido)-phenyl]-1,2,3,4,4a,10b-hexahydrobenzo[c][1,6]naphthyridine, reference compound], in data set [1], the “PDE4 inhibitory concentration as -log IC50” value is given as 7.20. Moreover, the IC50 in data set [2] is 95.5 nM; in the data set on human PMNL, 851 nM; in data set [3], 813 nM; in data set [5], 2340 nM. Besides, the “PDE1 inhibitory concentration as -log IC50” value in data set [4] turned out to be 4.75.

The record behind these values is patent publication US6384047B1, “Benzonaphthyridine” (Byk Gulden Lomberg Chemische Fabrik GmbH, priority 1997, dated 2002).
